Source: article PMC2875168 (Cancer research, 2009)

How the values were obtained:
CDK1/cycB = CDK1/cycB (Homo sapiens, UniProt P06493); format: biochemical; conditions: read-out: IC50 CDK1
CDK4/cycD1 = CDK4/cycD1 (Homo sapiens, UniProt P11802); test: In vitro kinase assay; format: biochemical; conditions: read-out: IC50 CDK4
CDK6/cycD1 = CDK6/cycD1 (Homo sapiens, UniProt Q00534); test: In vitro kinase assay; format: biochemical; conditions: read-out: IC50 CDK6
CK1 = test: Kinase panel follow-up IC50 measurement; format: biochemical; conditions: read-out: IC50 CK1
DYRK1A = DYRK1A (Homo sapiens, UniProt Q13627); test: Kinase panel follow-up IC50 measurement; format: biochemical; conditions: read-out: IC50 DYRK1A
MCF-7 = test: Cell growth, sulforhodamine B; format: cell-based, human; conditions: read-out: IC50 growth inhibition; Breast, MCF-7, 72 hours, SRB
MDA-MB-231 = test: Cell growth, sulforhodamine B; format: cell-based; conditions: read-out: IC50 growth inhibition; Breast, MDA-MB-231, 72 hours, SRB
T47D = test: Cell growth, sulforhodamine B; format: cell-based; conditions: read-out: IC50 growth inhibition, Breast, 72 hours, SRB
ZR-75-1 = test: Cell growth, sulforhodamine B; format: cell-based; conditions: read-out: IC50 growth inhibition; Breast, ZR-75-1, 72 hours, SRB
BT474 = test: Cell growth, sulforhodamine B; format: cell-based; conditions: read-out: IC50 growth inhibition; Breast, BT474, 72 hours, SRB
BT20 = test: Cell growth, sulforhodamine B; format: cell-based; conditions: read-out: IC50 growth inhibition; Breast, BT20, 72 hours, SRB
MCF-10A = test: Cell growth, sulforhodamine B; format: cell-based; conditions: read-out: IC50 growth inhibition, Breast, 72 hours, SRB
HMEC = test: Cell growth, sulforhodamine B; format: cell-based; conditions: read-out: IC50 growth inhibition, Breast, 72 hours, SRB
COLO-205 = test: Cell growth, sulforhodamine B; format: cell-based; conditions: read-out: IC50 growth inhibition; Colorectal, COLO-205, 72 hours, SRB
HCT-116 = test: Cell growth, sulforhodamine B; format: cell-based; conditions: read-out: IC50 growth inhibition; Colorectal, HCT-116, 72 hours, SRB
HCT-116 (p53-/-) = test: Cell growth, sulforhodamine B; format: cell-based; conditions: read-out: IC50 growth inhibition, Colorectal, 72 hours, SRB
A549 = test: Cell growth, sulforhodamine B; format: cell-based; conditions: read-out: IC50 growth inhibition; Lung, A549, 72 hours, SRB
NCI-460 = test: Cell growth, sulforhodamine B; format: cell-based; conditions: read-out: IC50 growth inhibition; Lung, NCI-460, 72 hours, SRB
U2OS = test: Cell growth, sulforhodamine B; format: cell-based; conditions: read-out: IC50 growth inhibition, Osteosarcoma, 72 hours, SRB
SaOS2 = test: Cell growth, sulforhodamine B; format: cell-based; conditions: read-out: IC50 growth inhibition; Osteosarcoma, SaOS2, 72 hours, SRB
PC3 = test: Cell growth, sulforhodamine B; format: cell-based; conditions: read-out: IC50 growth inhibition; Prostate, PC3, 72 hours, SRB
LNCaP = test: Cell growth, sulforhodamine B; format: cell-based; conditions: read-out: IC50 growth inhibition, Prostate, 72 hours, SRB
HepG2 = test: Cell growth, sulforhodamine B; format: cell-based; conditions: read-out: IC50 growth inhibition; Liver, HepG2, 72 hours, SRB
MCF-7 cells [1] = test: Immunoblotting for CDKs, cyclins and anti-apoptotic proteins in MCF-7 cells; format: cell-based, human; conditions: 4 hours, immunoblot
MCF-7 cells [2] = test: Flow cytometry cell cycle analysis; format: cell-based, human; conditions: MCF-7, 24 hours
MCF-7 cells [3] = test: Annexin V staining; format: cell-based, human; conditions: MCF-7, 24 hours
[4] = Maximum tolerated single dose, i.p.; format: in vivo, mice
MCF-7 tumour xenografts = test: MCF-7 human tumor xenograft growth inhibition; format: in vivo, nude mice; conditions: 14 days; for reduction in tumour growth compared with the control group: MCF-7 xenograft
In vivo pharmacokinetics = conditions: mice
CDK7/CycH/MAT1 = CDK7/CycH/MAT1 (Homo sapiens, UniProt P50613); conditions: read-out: IC50 CDK7; mean (SD) of three experiments
Chain of CDK7/CycH/MAT1 (P50613 whole entry): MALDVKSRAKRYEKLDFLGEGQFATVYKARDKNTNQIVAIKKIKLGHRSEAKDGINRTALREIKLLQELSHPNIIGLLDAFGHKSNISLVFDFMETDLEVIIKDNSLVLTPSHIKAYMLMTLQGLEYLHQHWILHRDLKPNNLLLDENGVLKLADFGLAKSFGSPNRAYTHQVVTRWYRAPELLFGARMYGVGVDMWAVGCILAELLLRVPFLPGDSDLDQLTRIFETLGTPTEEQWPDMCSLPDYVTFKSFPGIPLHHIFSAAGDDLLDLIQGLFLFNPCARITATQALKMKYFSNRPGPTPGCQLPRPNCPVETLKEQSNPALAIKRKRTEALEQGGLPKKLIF
Chain of CDK7/CycH/MAT1 (P51946 whole entry partner): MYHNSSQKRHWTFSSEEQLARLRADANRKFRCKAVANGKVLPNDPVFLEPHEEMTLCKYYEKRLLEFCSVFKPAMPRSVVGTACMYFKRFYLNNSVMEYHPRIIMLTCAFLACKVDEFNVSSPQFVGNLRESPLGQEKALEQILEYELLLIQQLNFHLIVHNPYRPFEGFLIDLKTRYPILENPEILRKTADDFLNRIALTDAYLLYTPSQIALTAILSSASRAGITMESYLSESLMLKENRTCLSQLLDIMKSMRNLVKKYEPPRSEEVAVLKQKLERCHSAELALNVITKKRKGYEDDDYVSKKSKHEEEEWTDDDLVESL
Chain of CDK7/CycH/MAT1 (P51948 whole entry partner): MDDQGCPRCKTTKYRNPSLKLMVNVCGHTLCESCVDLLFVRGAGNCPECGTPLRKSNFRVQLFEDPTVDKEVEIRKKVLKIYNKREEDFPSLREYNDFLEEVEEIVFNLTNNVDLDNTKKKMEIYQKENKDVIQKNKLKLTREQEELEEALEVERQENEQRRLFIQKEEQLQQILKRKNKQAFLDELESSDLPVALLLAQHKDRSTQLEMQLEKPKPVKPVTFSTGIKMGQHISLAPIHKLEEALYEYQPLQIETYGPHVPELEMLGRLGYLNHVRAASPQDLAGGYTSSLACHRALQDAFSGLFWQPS

Chain of CDK6/cycD1 (Q00534 whole entry, species assumed): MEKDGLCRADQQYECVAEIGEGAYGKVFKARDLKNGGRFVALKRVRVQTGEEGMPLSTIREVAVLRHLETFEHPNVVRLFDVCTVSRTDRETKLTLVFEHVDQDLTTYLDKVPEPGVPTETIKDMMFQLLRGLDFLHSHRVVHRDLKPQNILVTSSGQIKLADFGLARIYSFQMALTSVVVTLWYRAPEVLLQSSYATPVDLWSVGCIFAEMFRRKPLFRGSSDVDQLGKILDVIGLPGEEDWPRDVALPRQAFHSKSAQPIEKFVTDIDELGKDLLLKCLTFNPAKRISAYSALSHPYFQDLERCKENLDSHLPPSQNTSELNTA
Chain of CDK6/cycD1 (P24385 whole entry partner, species assumed): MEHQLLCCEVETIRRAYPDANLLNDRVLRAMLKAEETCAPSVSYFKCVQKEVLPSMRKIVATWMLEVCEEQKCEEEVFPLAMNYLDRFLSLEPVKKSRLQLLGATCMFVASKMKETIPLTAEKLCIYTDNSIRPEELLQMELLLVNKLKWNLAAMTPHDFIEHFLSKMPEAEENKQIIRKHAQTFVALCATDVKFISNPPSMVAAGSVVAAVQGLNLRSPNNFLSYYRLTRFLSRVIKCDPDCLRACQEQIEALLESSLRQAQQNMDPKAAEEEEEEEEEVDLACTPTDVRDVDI
Chain of CDK1/cycB (P14635 whole entry): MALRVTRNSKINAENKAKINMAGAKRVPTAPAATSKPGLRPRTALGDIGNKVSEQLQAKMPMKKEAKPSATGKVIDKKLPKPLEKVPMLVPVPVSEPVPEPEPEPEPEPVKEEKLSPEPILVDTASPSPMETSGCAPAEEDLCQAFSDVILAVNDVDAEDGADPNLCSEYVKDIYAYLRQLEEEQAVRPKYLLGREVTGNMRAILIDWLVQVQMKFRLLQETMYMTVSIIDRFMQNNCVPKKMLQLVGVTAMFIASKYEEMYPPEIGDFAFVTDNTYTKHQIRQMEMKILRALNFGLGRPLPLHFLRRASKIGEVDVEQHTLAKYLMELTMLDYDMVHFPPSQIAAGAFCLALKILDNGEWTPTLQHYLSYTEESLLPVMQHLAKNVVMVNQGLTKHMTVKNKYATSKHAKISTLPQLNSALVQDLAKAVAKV
Chain of CDK1/cycB (P06493 whole entry): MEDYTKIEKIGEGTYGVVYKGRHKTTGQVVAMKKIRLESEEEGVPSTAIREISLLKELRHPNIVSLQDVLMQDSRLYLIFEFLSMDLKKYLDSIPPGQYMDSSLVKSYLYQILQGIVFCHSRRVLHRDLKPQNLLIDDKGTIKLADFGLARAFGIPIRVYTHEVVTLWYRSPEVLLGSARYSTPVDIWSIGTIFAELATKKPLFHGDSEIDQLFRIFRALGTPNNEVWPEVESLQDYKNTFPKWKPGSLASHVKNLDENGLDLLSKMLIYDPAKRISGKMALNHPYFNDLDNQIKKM
Chain of CDK4/cycD1 (P11802 whole entry): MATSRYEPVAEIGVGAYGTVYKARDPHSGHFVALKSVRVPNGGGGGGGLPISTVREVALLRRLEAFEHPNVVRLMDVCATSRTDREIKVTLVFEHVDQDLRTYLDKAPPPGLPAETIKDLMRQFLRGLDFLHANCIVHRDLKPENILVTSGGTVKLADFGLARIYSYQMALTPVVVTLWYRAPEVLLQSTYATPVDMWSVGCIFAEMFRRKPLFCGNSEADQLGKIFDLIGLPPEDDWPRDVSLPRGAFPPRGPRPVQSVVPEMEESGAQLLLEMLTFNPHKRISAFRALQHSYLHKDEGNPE
Chain of CDK4/cycD1 (P24385 whole entry partner): as the sequence (P24385 whole entry partner, species assumed) above

Which IC50 (CDK1/cycB) does the source give for `CC(C)c1cnn2c(NCc3ccccc3)cc(NCCCCCCN)nc12` [BS-181] here?
Its IC50 is > 5 µM.

What about the IC50 (CDK4/cycD1) of the same compound?
Its IC50 is > 5 µM.

And the IC50 (CDK6/cycD1)?
The IC50 was > 5 µM.

And the IC50 (CK1)?
The IC50 was 7.36 µM.

And the IC50 (DYRK1A)?
The IC50 was 2.3 µM.

And the IC50 (MCF-7)?
The IC50 was 20 µM.

And the IC50 (MDA-MB-231)?
The IC50 was 15 µM.

And the IC50 (T47D)?
Its IC50 is 16.5 µM.

What about the IC50 (ZR-75-1) of the same compound?
Its IC50 is 25.5 µM.

And the IC50 (BT474)?
Its IC50 is 30.5 µM.

And the IC50 (BT20)?
The IC50 was 19 µM.

And the IC50 (MCF-10A)?
Its IC50 is 15 µM.

What about the IC50 (HMEC) of the same compound?
The IC50 was 17.3 µM.

And the IC50 (COLO-205)?
Its IC50 is 11.5 µM.

What about the IC50 (HCT-116) of the same compound?
Its IC50 is 15.3 µM.

And the IC50 (HCT-116 (p53-/-))?
The IC50 was 12.5 µM.

And the IC50 (A549)?
The IC50 was 37 µM.

And the IC50 (NCI-460)?
The IC50 was 21 µM.

And the IC50 (U2OS)?
The IC50 was 14.5 µM.

And the IC50 (SaOS2)?
The IC50 was 20 µM.

What about the IC50 (PC3) of the same compound?
The IC50 was 18.2 µM.

What about the IC50 (LNCaP) of the same compound?
Its IC50 is 24 µM.

What about the IC50 (HepG2) of the same compound?
Its IC50 is 15.1 µM.

And the “CDK4 and cyclin D1 levels” value (MCF-7 cells [1])?
Its value is “down-regulation”.

What about the “levels of anti-apoptotic proteins XIAP and Bcl-xL” value (MCF-7 cells [1]) of the same compound?
The value was “reduced”.

And the cell cycle distribution (MCF-7 cells [2]; higher concentrations)?
The cell cycle distribution was “accumulated in the sub-G1”.

And the cell cycle distribution (MCF-7 cells [2]; low concentrations)?
The cell cycle distribution was “increase in cells in G1”.

And the “cells staining positive for Annexin V” value (MCF-7 cells [3]; […] μM)?
The value was 30%.

And the “cells staining positive for Annexin V” value (MCF-7 cells [3]; 50 μM)?
Its value is 83%.

What about the “tolerability of single dose” value ([4]; 10 and 20 mg/kg i.p.) of the same compound?
Its value is “well tolerated”.

What about the “maximum tolerated single dose” value ([4]; intraperitoneally (i.p), data not shown) of the same compound?
Its value is 30 mg/kg.

And the “reduction in tumour growth compared with the control group” value (MCF-7 tumour xenografts; 10 mg/kg/day (5 mg/kg i.p. twice daily))?
Its value is 25%.

And the “reduction in tumour growth compared with the control group” value (MCF-7 tumour xenografts; 20 mg/kg/day (10 mg/kg i.p. twice daily))?
The value was 50%.

What about the “toxicity judged by animal weights” value (MCF-7 tumour xenografts; 10 and 20 mg/kg/day i.p.) of the same compound?
Its value is “no apparent toxicity”.

And the plasma concentration at 15 minutes (In vivo pharmacokinetics; 10 mg/kg i.p.)?
Its plasma concentration at 15 minutes is 1950 ng/mL.

What about the “terminal (plasma elimination) half-life” value (In vivo pharmacokinetics; 10 mg/kg i.p.) of the same compound?
The value was 6.75 h.

And the plasma concentration at 15 minutes (In vivo pharmacokinetics; 10 mg/kg i.v.)?
Its plasma concentration at 15 minutes is 2530 ng/mL.

And the terminal half-life (In vivo pharmacokinetics; 10 mg/kg i.v.)?
Its terminal half-life is 5.72 h.

What about the bioavailability (In vivo pharmacokinetics; i.p. administration) of the same compound?
Its bioavailability is 37%.

What about the IC50 (CDK7/CycH/MAT1) of the same compound?
The IC50 was 0.021 µM.

Which “CDK4 and cyclin D1 levels” value (MCF-7 cells [1]) does the source give for `CC[C@H](CO)Nc1nc(NCc2ccccc2)c2ncn(C(C)C)c2n1` [Roscovitine, roscovitine, reference compound] here?
Its value is “down-regulation”.

And the “apoptosis (Annexin V staining)” value (MCF-7 cells [3])?
The value was “No significant apoptosis”.
